Entries after “also recorded” stand apart in the source; their conditions may differ.
Columns and labels:
[1] = Plasma pharmacokinetics in nude mice bearing PC3 xenografts; settings: single iv; for plasma docetaxel concentrations falling below the levels of detection after: free drugs
Description: (§1) The plasma pharmacokinetics and distribution were studied in male athymic nude mice each implanted subcutaneously with PC3 cells (human prostate cancer). Once tumors reached a volume of 100-300 mm^3, animals were randomized into 5 groups.
(§2) Three animals were sacrificed at 5 minutes and 1, 4, 24, 48, 72, 120 and 168 hours post injection. Blood samples were taken for pharmacokinetic analysis at each time. Pharmacokinetic parameters of TD-1 and docetaxel were calculated using the Phoenix WinNonLin software by non-compartment analysis modeling.

in vivo [2] = settings: female, athymic nude, mouse, iv
Description: (§3) The plasma pharmacokinetics and distribution were studied in female athymic nude mice each implanted subcutaneously with A549 cells (human non-small cell lung cancer). Once tumors reached a volume of 100-300 mm^3, animals were randomized into 4 groups.
(§4) Three animals were sacrificed at 1, 4, 24, 72 (3 days), 168 (7 days), 216 (9 days), 336 (14 days), 432 (18 days) and 504 hours (21 days) post injection. Blood samples were taken for pharmacokinetic analysis at each time point. Pharmacokinetic parameters of TD-1 and docetaxel were calculated using the Phoenix WinNonLin software by non-compartment analysis modeling.

[3] = tested on: human A253 (Head & Neck) tumor xenografts; assay: Antitumor activity, A253 head & neck xenograft; assay type: in vivo, athymic nude mice; settings: for TGI (%): day 31 post treatment
Text: The studies were of broadly similar design.

[4] = tested on: HT1080/PTK7 human fibrosarcoma tumor xenografts; assay: Antitumor activity, HT1080/PTK7 fibrosarcoma xenograft; assay type: in vivo, athymic nude mice
Description: (§5) The studies were of broadly similar design. Tumor cell lines were implanted subcutaneously into the flank of nude (immunodeficient) mice and allowed to grow to a fixed size. […] In each case, where possible, doses were selected as providing equivalent levels of toxicity/tolerance. […] Tumor volume was analyzed to determine tumor growth delay (TGD) and partial regression. Mice were removed from the study if they lost 20% of their initial bodyweight or became moribund or if their tumor volume exceeded 2500 mm^3 or the tumor ulcerated. If less than half of the initial cohort of mice remained, that group was no longer graphed or included in further tumor analysis. However, any remaining animals were followed until completion of the in-life observation period and included in a survival analysis.

[5] = tested on: human A549 NSCLC tumor xenografts; assay: Antitumor activity, A549 NSCLC xenograft, single dose; assay type: in vivo, athymic nude mice
Description: as §5

[6] = tested on: A431 human epidermoid tumor xenografts; assay: Antitumor activity, A431 epidermoid xenograft; assay type: in vivo, athymic nude mice
Description: as §5

in vivo [7] = settings: male, athymic nude, mouse, plasma, iv, 19 mg/kg
Description: as §1, §2

[8] = tested on: A549 human NSCLC tumor xenografts; assay: Antitumor activity, A549 NSCLC xenograft, two doses 21 days apart; settings: for Median Survival / Partial Tumor Regression (%) / TGD / TGD (%): two doses 21 days apart
Description: The studies were of broadly similar design. Tumor cell lines were implanted subcutaneously into the flank of nude (immunodeficient) mice and allowed to grow to a fixed size. […] In each case, where possible, doses were selected as providing equivalent levels of toxicity/tolerance. The highest doses of TD-1 were usually limited by the volume that could be administered. Tumor volume was analyzed to determine tumor growth delay (TGD) and partial regression. Mice were removed from the study if they lost 20% of their initial bodyweight or became moribund or if their tumor volume exceeded 2500 mm^3 or the tumor ulcerated. If less than half of the initial cohort of mice remained, that group was no longer graphed or included in further tumor analysis. However, any remaining animals were followed until completion of the in-life observation period and included in a survival analysis.

[9] = tested on: human PC3 (prostate) tumor xenografts; assay: Antitumor activity, PC3 prostate xenograft; assay type: in vivo, athymic nude mice; settings: docetaxel 18 and 27 mg/kg
Description: as §5

[10] = tested on: MDA-MB-435/PTK7 (human breast) tumor xenografts; assay: Antitumor activity, MDA-MB-435/PTK7 breast xenograft; assay type: in vivo, athymic nude mice
Description: as §5

[11] = Tissue distribution in mice with PC3 xenografts; settings: docetaxel in tissue
Description: as §1, §2
In addition to the plasma levels and pharmacokinetic calculations described above, tissue distribution was also evaluated. Tissues harvested from each animal described in Table 5 and frozen before analysis included: tumor, liver, spleen, and kidney.

[12] = Tissue distribution in mice with A549 xenografts; settings: for Kidney AUC / Liver AUC / Spleen AUC / Tumor AUC: docetaxel in tissue
Description: as §3
Three animals were sacrificed at 1, 4, 24, 72 (3 days), 168 (7 days), 216 (9 days), 336 (14 days), 432 (18 days) and 504 hours (21 days) post injection. Blood samples were taken for pharmacokinetic analysis at each time point.

[13] = mouse, in vivo
Description: as §3, §4

[14] = docetaxel in plasma, dose 19 mg/kg (docetaxel equivalent)
[15] = 30 mg/kg (docetaxel equivalent) single iv
[16] = dose 19 mg/kg (docetaxel equivalent)
[17] = TD-1 in plasma, dose 11 mg/kg (docetaxel equivalent)
[18] = docetaxel in plasma, dose 11 mg/kg (docetaxel equivalent)

CC(=O)O[C@@]12CO[C@@H]1C[C@H](O)[C@@]1(C)C(=O)[C@H](O)C3=C(C)[C@@H](OC(=O)[C@H](O)[C@@H](NC(=O)OC(C)(C)C)c4ccccc4)C[C@@](O)([C@@H](OC(=O)c4ccccc4)[C@H]21)C3(C)C [Docetaxel, docetaxel]
AUC/Dose [1, 14]: 0.7 | Cmax/Dose [1, 14]: 0.7 | plasma docetaxel concentrations falling below the levels of detection after [1]: 48 h | AUC(0-inf) (in vivo [2]; 30 mg/kg): 8800 ng·h/mL | Cmax (in vivo [2]; 30 mg/kg): 2700 ng/mL | Vd (in vivo [2]; 30 mg/kg): 16.1 L/kg | AUC(0-inf) (in vivo [2]; 50 mg/kg): 27000 ng·h/mL | Cmax (in vivo [2]; 50 mg/kg): 8600 ng/mL | Vd (in vivo [2]; 50 mg/kg): 37.2 L/kg | Median Survival ([3]; 10 mg/kg single iv): 64 days | TGD ([3]; 10 mg/kg single iv): 0 days | TGD (%) ([3]; 10 mg/kg single iv): 0% | TGI (%) ([3]; 10 mg/kg single iv): 0% | Median Survival ([3]; 20 mg/kg single iv): 62 days | TGD ([3]; 20 mg/kg single iv): 0 days | TGD (%) ([3]; 20 mg/kg single iv): 0% | TGI (%) ([3]; 20 mg/kg single iv): 0% | Median Survival [3, 15]: 73 days | TGD [3, 15]: 5 days | TGD (%) [3, 15]: 9% | TGI (%) [3, 15]: 12% | effect on tumor volumes and survival ([3]; docetaxel 10, 20, 30 mg/kg): failed to reduce A253 tumor volumes significantly or extend survival | Median Survival ([4]; 9 mg/kg single iv): 11.5 days | Partial Tumor Regression (%) ([4]; 9 mg/kg single iv): 0% | TGI (%) ([4]; 9 mg/kg single iv): 52% | Median Survival ([4]; 18 mg/kg single iv): 23 days | Partial Tumor Regression (%) ([4]; 18 mg/kg single iv): 10% | TGD ([4]; 18 mg/kg single iv): 7 | TGD (%) ([4]; 18 mg/kg single iv): 70% | TGI (%) ([4]; 18 mg/kg single iv): 31% | Median Survival ([4]; 27 mg/kg single iv): 30 days | Partial Tumor Regression (%) ([4]; 27 mg/kg single iv): 70% | TGD ([4]; 27 mg/kg single iv): 16 | TGD (%) ([4]; 27 mg/kg single iv): 160% | TGI (%) ([4]; 27 mg/kg single iv): 89% | survival ([4]; docetaxel): did not significantly increase survival | tumor growth compared to saline ([4]; docetaxel 27 mg/kg, day 14): inhibited tumor growth; also recorded: significantly smaller tumors than saline | Median Survival ([5]; 10 mg/kg single iv): 96 days | Partial Tumor Regression (%) ([5]; 10 mg/kg single iv): 0% | TGI (%) ([5]; 10 mg/kg single iv): 0% | Partial Tumor Regression (%) ([5]; 20 mg/kg single iv): 0% | TGI (%) ([5]; 20 mg/kg single iv): 4% | Partial Tumor Regression (%) [5, 15]: 10% | TGI (%) [5, 15]: 38% | effect on tumor volumes and survival ([5]; docetaxel 10, 20, 30 mg/kg): failed to reduce A549 tumor volumes significantly or extend survival | Median Survival ([6]; 20 mg/kg single iv): 17 days | Partial Tumor Regression (%) ([6]; 20 mg/kg single iv): 63% | TGD ([6]; 20 mg/kg single iv): 13 | TGD (%) ([6]; 20 mg/kg single iv): 1408% | TGI (%) ([6]; 20 mg/kg single iv): 123% | Median Survival ([6]; 30 mg/kg single iv): 9 days | Partial Tumor Regression (%) ([6]; 30 mg/kg single iv): 50% | TGI (%) ([6]; 30 mg/kg single iv): 120% | tumor growth compared to saline ([6]; docetaxel 20 and 30 mg/kg, day 7): inhibited tumor growth; also recorded: significantly smaller tumors than saline | AUC (in vivo [7]): 13000 ng·h/mL | Cmax (in vivo [7]): 13000 ng/mL | Vd (in vivo [7]): 16.1 L/kg | clearance (in vivo [7]): 25 mL/min/kg | half-life (in vivo [7]): 7.4 h | Median Survival ([8]; 18 mg/kg): 56 days | Partial Tumor Regression (%) ([8]; 18 mg/kg): 0% | TGD ([8]; 18 mg/kg): 19 | TGD (%) ([8]; 18 mg/kg): 66% | Median Survival ([8]; 27 mg/kg): 100 days | Partial Tumor Regression (%) ([8]; 27 mg/kg): 10% | TGD ([8]; 27 mg/kg): 41 | TGD (%) ([8]; 27 mg/kg): 141% | survival compared to saline ([8]; all dose levels, p<0.05): increased survival significantly compared to saline | tumor growth compared to saline ([8]; docetaxel 18 and 27 mg/kg, days 0 and 21, day 37): inhibited tumor growth; also recorded: significantly smaller tumors than saline | tumor growth [9]: inhibited tumor growth | survival compared to saline ([9]; p<0.05): increased survival significantly more than saline | Median Survival ([10]; 9 mg/kg single iv): 15 days | Partial Tumor Regression (%) ([10]; 9 mg/kg single iv): 0% | TGD ([10]; 9 mg/kg single iv): 1 | TGD (%) ([10]; 9 mg/kg single iv): 9% | Median Survival ([10]; 18 mg/kg single iv): 28 days | Partial Tumor Regression (%) ([10]; 18 mg/kg single iv): 13% | TGD ([10]; 18 mg/kg single iv): 10 | TGD (%) ([10]; 18 mg/kg single iv): 91% | TGI (%) ([10]; 18 mg/kg single iv): 26% | Median Survival ([10]; 27 mg/kg single iv): 35 days | Partial Tumor Regression (%) ([10]; 27 mg/kg single iv): 38% | TGD ([10]; 27 mg/kg single iv): 18 | TGD (%) ([10]; 27 mg/kg single iv): 164% | TGI (%) ([10]; 27 mg/kg single iv): 42% | tumor growth ([10]; docetaxel 18 and 27 mg/kg): inhibited tumor growth | Kidney AUC [11, 16]: 73 µg·h/g | Liver AUC [11, 16]: 50 µg·h/g | Spleen AUC [11, 16]: 94 µg·h/g | Tumor AUC [11, 16]: 896 µg·h/g | tumor retained measurable levels of docetaxel through ([12]; docetaxel 50 mg/kg): 216 h | tissue concentrations of docetaxel fell below the limits of quantitation after ([12]; docetaxel 50 mg/kg, most of the tissues except tumor): 24 h | Kidney AUC ([12]; dose 30 mg/kg): 28 µg·h/g | Liver AUC ([12]; dose 30 mg/kg): 10 µg·h/g | Spleen AUC ([12]; dose 30 mg/kg): 77 µg·h/g | Tumor AUC ([12]; dose 30 mg/kg): 276 µg·h/g | Kidney AUC ([12]; dose 50 mg/kg): 179 µg·h/g | Liver AUC ([12]; dose 50 mg/kg): 37 µg·h/g | Spleen AUC ([12]; dose 50 mg/kg): 162 µg·h/g | Tumor AUC ([12]; dose 50 mg/kg): 442 µg·h/g | docetaxel in liver, spleen and kidney fell below the levels of detection within ([12]; free docetaxel, after injection): ≤ 24 h | tumor docetaxel falling below the levels of quantitation (1.0 μg/g) after ([12]; intravenous injection of docetaxel): nine days | plasma docetaxel detectable for [13]: only four hours

CC(=O)O[C@@]12CO[C@@H]1C[C@H](O)[C@@]1(C)C(=O)[C@H](O)C3=C(C)[C@@H](OC(=O)[C@H](OC(=O)CCCN4CCN(C)CC4)[C@@H](NC(=O)OC(C)(C)C)c4ccccc4)C[C@@](O)([C@@H](OC(=O)c4ccccc4)[C@H]21)C3(C)C [TD-1, 2′O-4-(4-methylpiperazin-1-yl)-butanoyl-docetaxel]
AUC [1, 17]: 5700 ng·h/mL | AUC/Dose [1, 17]: 0.4 | CL [1, 17]: 39.77 mL/min/kg | Cmax [1, 17]: 5000 ng/mL | Cmax/Dose [1, 17]: 0.4 | Vz [1, 17]: 26.01 L/kg | t1/2 [1, 17]: 7.6 h | AUC [1, 18]: 4100 ng·h/mL | AUC/Dose [1, 18]: 0.4 | CL [1, 18]: 43.18 mL/min/kg | Cmax [1, 18]: 1400 ng/mL | Cmax/Dose [1, 18]: 0.1 | Vz [1, 18]: 40.905 L/kg | t1/2 [1, 18]: 11 h | plasma docetaxel concentrations falling below the levels of detection after [1]: 48 h | Tumor AUC ([11]; dose 11 mg/kg (docetaxel equivalent)): 314 µg·h/g

Reference: patent US20140271822A1, “MODIFIED DOCETAXEL LIPOSOME FORMULATIONS” (Mallinckrodt LLC, priority 2013, published 2014)
